Laboratory results: US20240124442A1, “TRICYCLIC-AMIDO-BICYCLIC PRMT5 INHIBITORS” (AMGEN INC., priority 2021, published 2024)

How the values were obtained:
HCT116 MTAP null cells = test: HCT116 MTAP null cell line proliferation / cell viability (CellTiter-Glo, 6 days); format: cell-based; details: 144 h; HCT116 MTAP null cells, 6 days treatment, CellTiter-Glo cell viability; read-out: HCT-116 MTAP null IC50
Description: (§1) HCT116 Proliferation Activity
(§2) To assess selective anti-proliferative activity of compounds of the invention in cells that have loss expression of MTAP, an HCT-116 isogenic cell line pair was utilized where one cell line was engineered to genetically knockout both MTAP alleles. Cell viability was then assessed in both the parent HCT-116 cell line and the MTAP null cell line after 6 days of treatment with compounds of the present invention. Selective anti-proliferative activity in the MTAP null cell line indicates MTA-cooperative inhibition of PRMT5 and ability to inhibit growth of cancer cells that have loss of MTAP.
(§3) HCT116 MTAP null and WT cells were seeded in 96-well tissue culture plates in RPMI 1640 media+10% fetal bovine serum. Plates were incubated overnight at 37° C. and 5% CO2. Cells were then treated with an 8- or 9-point serial dilution of compound, using a top concentration of 1, or 10 μM, 1:3 serial dilution steps and, a DMSO-only control. Cells were incubated in the presence of drug for 6 days. Effects on cell viability were measured with the CellTiter-Glo® Luminescent Cell Viability Assay (Promega) per manufacturer's recommendation. Assay plates were read on an EnVision™ Multilabel Reader using the Ultra-Sensitive luminescence module. IC50 values were calculated with GraphPad Prism v 5.01 using symmetrical sigmoidal dose-response least squares fit with Hill slope fixed to −1 and top constrain to 100% or GeneData Screener using a 4-parameter logistic model to fit dose response curves.
(§4) Alternatively, compounds could be assayed with a 384 well plate format:
(§5) Compounds were pre-spotted into 384 well plates with a 22-point serial dilution of compound, using a top concentration of 10 or 50 μM, 1:2 serial dilution steps and, a DMSO-only control. HCT116 MTAP null and WT cells were then seeded as above and after 6 days effects on cell viability were measured with the CellTiter-Glo® Luminescent Cell Viability Assay (Promega). Assay plates were read as above and IC50 values were calculated with GeneData Screener using a 4-parameter logistic model to fit dose response curves. The reported IC50 represents the value where the curve transits 50% of control.

HCT116 WT cells = test: HCT116 WT (parent) cell line proliferation / cell viability (CellTiter-Glo, 6 days); format: cell-based; details: Homo sapiens, HCT-116, 144 h, 6 days treatment
Description: as §1, §2, §3, §4, §5

SMILES | IC50 (HCT116 MTAP null cells) [nM] | IC50 (HCT116 WT cells) [nM]
CN(C(=O)c1cc2c3c(c(N)nc2cc1F)COC3)C1COc2cc(Br)cnc21 (racemic) [Example 465, 4-amino-N-((3R)-6-bromo-2,3-dihydrofuro[3,2-b]pyridin-3-yl)-7-fluoro-N-methyl-1,3-dihydrofuro[3,4-c]quinoline-8-carboxamide and 4-amino-N-((3S)-6-bromo-2,3-dihydrofuro[3,2-b]pyridin-3-yl)-7-fluoro-N-methyl-1,3-dihydrofuro[3,4-c]quinoline-8-carboxamide] | 1420 | 32200
CN(C(=O)c1cc2c(cc1F)nc(N)c1c2cnn1C)C1COc2cc(C#N)ccc21 (racemic) [Example 482, 4-amino-N-((3R)-6-cyano-2,3-dihydro-1-benzofuran-3-yl)-7-fluoro-N,3-dimethyl-3H-pyrazolo[3,4-c]quinoline-8-carboxamide and 4-amino-N-((3S)-6-cyano-2,3-dihydro-1-benzofuran-3-yl)-7-fluoro-N,3-dimethyl-3H-pyrazolo[3,4-c]quinoline-8-carboxamide] | 166 | 17500
CN(C(=O)c1cc2c(cc1F)nc(N)c1c2cnn1C)C1CSc2cc(Br)ccc21 (racemic) [Example 484, 4-amino-N-((3R)-6-bromo-2,3-dihydro-1-benzothiophen-3-yl)-7-fluoro-N,3-dimethyl-3H-pyrazolo[3,4-c]quinoline-8-carboxamide and 4-amino-N-((3S)-6-bromo-2,3-dihydro-1-benzothiophen-3-yl)-7-fluoro-N,3-dimethyl-3H-pyrazolo[3,4-c]quinoline-8-carboxamide] | 221 | 5590
CN(C(=O)c1cc2c(cc1Cl)nc(N)c1c2cnn1C)C1CCc2nc(C(F)(F)F)ccc21 (racemic) [Example 485, 4-amino-7-chloro-N,3-dimethyl-N-((5R)-2-(trifluoromethyl)-6,7-dihydro-5H-cyclopenta[b]pyridin-5-yl)-3H-pyrazolo[3,4-c]quinoline-8-carboxamide and 4-amino-7-chloro-N,3-dimethyl-N-((5S)-2-(trifluoromethyl)-6,7-dihydro-5H-cyclopenta[b]pyridin-5-yl)-3H-pyrazolo[3,4-c]quinoline-8-carboxamide] | 125 | 11700

These reach a lower IC50 (HCT116 MTAP null cells). Values come first.

IC50 (HCT116 MTAP null cells) [nM] | IC50 (HCT116 WT cells) [nM] | SMILES
23 | 710 | CN(C(=O)c1cc2c(cc1F)nc(N)c1cnn(C)c12)C1CSc2cc(Br)ccc21 (racemic) [Example 479, 4-amino-N-((3R)-6-bromo-2,3-dihydro-1-benzothiophen-3-yl)-7-fluoro-N,1-dimethyl-1H-pyrazolo[4,3-c]quinoline-8-carboxamide and 4-amino-N-((3S)-6-bromo-2,3-dihydro-1-benzothiophen-3-yl)-7-fluoro-N,1-dimethyl-1H-pyrazolo[4,3-c]quinoline-8-carboxamide]
22 | 1880 | CC(C)S(=O)(=O)c1ccc2c(c1)OCC2N(C)C(=O)c1cc2c3c(c(N)nc2cc1F)COC3 (racemic) [Example 464, 4-amino-7-fluoro-N-methyl-N-((3R)-6-(2-propanylsulfonyl)-2,3-dihydro-1-benzofuran-3-yl)-1,3-dihydrofuro[3,4-c]quinoline-8-carboxamide and 4-amino-7-fluoro-N-methyl-N-((3S)-6-(2-propanylsulfonyl)-2,3-dihydro-1-benzofuran-3-yl)-1,3-dihydrofuro[3,4-c]quinoline-8-carboxamide]
22 | 1140 | CN(C(=O)c1cc2c3c(c(N)nc2cc1Cl)COC3)C1COc2cc(C(F)(F)F)cc(F)c21 (racemic) [Example 472, 4-amino-7-chloro-N-((3R)-4-fluoro-6-(trifluoromethyl)-2,3-dihydro-1-benzofuran-3-yl)-N-methyl-1,3-dihydrofuro[3,4-c]quinoline-8-carboxamide and 4-amino-7-chloro-N-((3S)-4-fluoro-6-(trifluoromethyl)-2,3-dihydro-1-benzofuran-3-yl)-N-methyl-1,3-dihydrofuro[3,4-c]quinoline-8-carboxamide]
